Measured values from patent US20250188171A1, “COMBINATION THERAPY INCLUDING ANTIBODIES THAT BIND EGFR AND CMET” (MERUS N.V., priority 2022, published 2025).

Legend:
cMET = cMET (Homo sapiens, UniProt P08581); details: reported; cited from earlier work
[1] = test system: LXFE2478 NSCLC PDX tumor model
Method: This model carries mutation EGFRex20ins (M766_A767insASV).
Insertion of 9 nucleotides in exon 20 in this model affects the EGFR tyrosine kinase domain (M766X) and confers resistance to small molecule EGFR inhibitors. This model carries no mutations in B-RAF, H-/N- and KRAS and PTEN genes (whole exome sequencing was done for both patient tumor and tumor xenograft with matching results).
Antitumor efficacy of all groups was assessed using the control vehicle/placebo buffer group as a reference. Tumor growth inhibition was determined by the comparison of RTVs of the test groups with the control group and is expressed as minimum T/C value in percent. For the evaluation of the statistical significance of antitumor efficacy, the non-parametric Kruskal-Wallis test followed by Dunn's method for multiple comparisons was performed. […] Statistical analysis was only carried out if at least 50% of the initially randomized animals still remained in the relevant group. Comparisons between test groups were carried out for the same days. All p-values <0.05 were considered statistically significant. Statistical calculations were performed using GraphPad Prism bioanalytic software (version 9.10 for Microsoft Windows, GraphPad Software, San Diego, California, USA.
Tumors were harvested from the donor PDX mice, cut into fragments (LXFE2478: 3-4 mm edge length) and inoculated into recipient nude mice subcutaneously (SC) in the flank. When the tumor implants reached approximately 80-200 mm3 in a sufficient number of animals, mice were assigned to groups. Randomization was performed based on “stratified distribution” method. Treatment started on the same day as randomization (day 0).
Treatment started the same day as enrollment (day 0). Mice were terminated during the observation period if the tumor volume was >1000 mm3.
Antibody was administered once a week intra peritoneally (IP) at 5 mg/kg and 25 mg/kg dose over a period of 5 weeks.
After randomization, animals were routinely monitored for morbidity and mortality, they were weighted twice a week, and tumor volumes (TV) were determined twice a week with a caliper. Relative body weight (RBW) was calculated by dividing the absolute weight or volume on a certain day by the absolute weight at day 0 multiplied by 100. Relative tumor volumes (RTV) were calculated by dividing the absolute individual tumor volume on a certain day by the absolute tumor volume at day 0 multiplied by 100.
For mice that lost >10% body weight, weight was measured daily, and animals had facilitated access to feed and water, and access to DietGel.
A dose-free observation period was included to compare duration of response and relapse (tumor re-growth) after treatment end. […]

HCC827-ER1 tumor cells = test: HCC827-ER1 NSCLC CDX model with EGFR exon 19 deletion
From the text: The model HCC827-ER1 was generated in BALB/c nude mice. It carries an EGFR mutation in exon 19 (deletion E746-A750), and has amplified c-MET copy number and Axl expression compared to the wild type HCC827 cell line.
Each mouse was inoculated in the right front flank region with HCC827-ER1 tumor cells mixed with Matrigel for tumor development. […] The date of randomization was denoted as day 0 and dosing was initiated from day 0. […] The dose-free observation period was included to compare duration of response and relapse (tumor re-growth) after treatment end. Mice with tumor volume exceeding 1500 mm^3, or with body weight loss over 20% relative to the weight at the first day of treatment were terminated during the treatment period. Antibody was administered twice a week intra peritoneally (i.p.) at 25 mg/kg dose over a period of 21 days, with a total of 7 doses. […] Eight mice in group 1 were treated with vehicle control (placebo buffer). Tumor volume (mm^3) was measured twice per week in 2 dimensions using a caliper. The animals were checked for any effects of tumor growth and treatments on behavior such as mobility, food and water consumption, body weight gain/loss, eye/hair matting and any other abnormalities. Body weights were measured twice per week after randomization.

cMET and EGFR = details: Moores et al. (2016); cited from earlier work
mouse EGFR = mouse EGFR (Mus musculus, UniProt Q01279); test: Binding to mouse EGFR; details: in words

Chain of cMET (P08581 25-1390): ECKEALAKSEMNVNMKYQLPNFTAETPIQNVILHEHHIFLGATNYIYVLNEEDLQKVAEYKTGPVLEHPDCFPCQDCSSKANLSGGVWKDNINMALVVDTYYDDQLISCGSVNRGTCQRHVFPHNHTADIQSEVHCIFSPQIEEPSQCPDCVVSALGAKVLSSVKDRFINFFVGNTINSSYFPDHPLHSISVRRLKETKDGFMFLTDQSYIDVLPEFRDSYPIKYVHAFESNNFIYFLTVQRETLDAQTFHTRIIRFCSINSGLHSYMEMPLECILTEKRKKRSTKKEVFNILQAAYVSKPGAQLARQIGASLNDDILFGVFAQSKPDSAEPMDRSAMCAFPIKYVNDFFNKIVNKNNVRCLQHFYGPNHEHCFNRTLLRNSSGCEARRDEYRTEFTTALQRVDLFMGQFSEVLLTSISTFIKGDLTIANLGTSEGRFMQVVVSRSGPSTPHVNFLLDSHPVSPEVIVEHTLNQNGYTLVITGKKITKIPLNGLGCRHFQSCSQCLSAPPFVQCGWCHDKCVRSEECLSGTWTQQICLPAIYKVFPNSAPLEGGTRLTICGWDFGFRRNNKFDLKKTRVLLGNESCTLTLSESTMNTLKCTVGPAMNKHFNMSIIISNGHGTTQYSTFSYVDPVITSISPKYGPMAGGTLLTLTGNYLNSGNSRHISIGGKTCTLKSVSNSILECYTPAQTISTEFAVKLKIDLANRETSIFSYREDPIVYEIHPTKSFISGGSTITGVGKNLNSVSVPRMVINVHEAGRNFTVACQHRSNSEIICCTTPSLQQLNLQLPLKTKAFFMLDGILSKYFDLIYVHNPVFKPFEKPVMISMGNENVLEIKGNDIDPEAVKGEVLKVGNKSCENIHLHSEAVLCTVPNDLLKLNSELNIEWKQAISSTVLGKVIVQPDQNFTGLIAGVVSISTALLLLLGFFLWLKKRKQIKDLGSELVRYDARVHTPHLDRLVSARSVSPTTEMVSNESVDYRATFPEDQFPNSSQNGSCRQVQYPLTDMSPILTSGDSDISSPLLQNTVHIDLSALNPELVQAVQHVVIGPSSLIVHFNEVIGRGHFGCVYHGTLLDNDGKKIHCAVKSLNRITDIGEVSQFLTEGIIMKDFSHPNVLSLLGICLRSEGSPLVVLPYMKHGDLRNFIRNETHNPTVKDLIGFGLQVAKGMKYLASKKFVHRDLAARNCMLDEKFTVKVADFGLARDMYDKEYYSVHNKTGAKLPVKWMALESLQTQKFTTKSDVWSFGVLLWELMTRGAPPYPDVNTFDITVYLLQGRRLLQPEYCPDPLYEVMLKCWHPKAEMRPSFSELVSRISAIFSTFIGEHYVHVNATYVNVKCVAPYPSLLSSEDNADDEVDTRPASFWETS

For “5D5: reference anti-cMET antibody, Sema Domain, HGF block”, the MOA (cMET) is given as “HGF block”.

For `C=CC(=O)Nc1cc(Nc2nccc(-c3cn(C)c4ccccc34)n2)c(OC)cc1N(C)CCN(C)C` [Osimertinib], the “anti-tumor efficacy, monotherapy” value ([1]; 5 and 25 mg/kg) was “dose-dependent anti-tumor efficacy”, the body weight loss ([1]; Osimertinib 25 mg/kg PO QD) was over 10% and the “sensitivity of the model to treatment” value ([1]; at 5 mg/kg) was “reduced sensitivity”. The “xenograft progression to 750 mm3, mice” value ([1]; mouse, in vivo) was 6/9, the adverse events (HCC827-ER1 tumor cells; 25 mg/kg) was “tumor scabbing or tumor ulceration in some mice” and the “effect on tumor volume” value (HCC827-ER1 tumor cells; mouse, in vivo) was “tumor regression”.

For “JNJ-61186372: bispecific cMET×EGFR antibody produced by controlled Fab-arm exchange (Moores et al 2016)”, the “affinity imbalance, greater affinity for cMET than EGFR” value (cMET and EGFR) is given as “approximately 40 ×”.

In the case of “zalutumumab: EGFR monoclonal antibody in clinical development”, the “binding to mouse EGFR” value (mouse EGFR) is reported as “do not”.
